We go through 3 compounds from paper PMC5424180, “The molecular mechanism of the type IVa pilus motors” (Nature Communications, 2017).

For assay [1], the target named is T1, PilB (PilBGm) (Geobacter metallireducens, UniProt Q39VU7).
T1 construct: hexamer; residues 181-568 (N2D + CTD) built; primer-encoded start MQASRL, end TVADD
Briefly: X-ray crystallography, […] Å. Conditions: Mg2+; pH 7.0; 20 °C; non-saturating AMP-PNP; ATP binding sites (closed full occupancy, open ~70%).

In assay [2] the target is PilB from Geobacter metallireducens (Geobacter metallireducens). Briefly: crystal structure; PilB:AMP-PNP; non-saturating AMP-PNP (50 μM final to 120 μM PilB); 11% PEG3350, 0.1 M magnesium formate, 0.1 M Tris pH 7.0, vapour diffusion at 20 °C; six chains in the asymmetric unit.
Assay [3] shares this target. Briefly: crystal structure; PilB:ADP; no exogenous nucleotide added; 13% PEG3350, 0.1 M magnesium formate, 0.1 M Tris pH 7.6, vapour diffusion at 20 °C; three chains in the asymmetric unit, hexamer from crystal packing.
Assay [4] has as its target T1, PilB (PilBGm). Briefly: X-ray crystallography, […] Å (anisotropic). The note with it: Mg2+; pH 7.6; 20 °C; no exogenous nucleotide, ADP co-purified from E. coli; four closed ATP binding sites.

T1 sequence (Q39VU7 entry or part of it): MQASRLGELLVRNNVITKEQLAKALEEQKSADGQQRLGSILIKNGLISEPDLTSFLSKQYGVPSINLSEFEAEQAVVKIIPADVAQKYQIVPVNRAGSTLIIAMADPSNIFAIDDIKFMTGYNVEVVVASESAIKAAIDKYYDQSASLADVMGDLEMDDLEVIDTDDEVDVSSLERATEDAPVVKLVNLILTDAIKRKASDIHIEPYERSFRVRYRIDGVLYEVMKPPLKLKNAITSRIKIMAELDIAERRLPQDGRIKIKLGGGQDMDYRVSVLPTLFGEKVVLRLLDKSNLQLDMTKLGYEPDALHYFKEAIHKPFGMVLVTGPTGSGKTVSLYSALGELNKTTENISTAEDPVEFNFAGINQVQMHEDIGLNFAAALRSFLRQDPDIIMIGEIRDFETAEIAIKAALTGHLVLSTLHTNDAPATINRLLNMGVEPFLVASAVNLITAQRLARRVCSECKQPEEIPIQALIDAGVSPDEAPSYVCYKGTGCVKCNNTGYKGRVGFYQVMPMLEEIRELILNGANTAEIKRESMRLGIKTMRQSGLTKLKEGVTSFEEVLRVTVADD

Take `Nc1ncnc2c1ncn2[C@@H]1O[C@H](COP(=O)(O)OP(=O)(O)NP(=O)(O)O)[C@@H](O)[C@H]1O` [AMP-PNP]: the “X-ray crystallography, 2.3 Å” value at PilB (PilBGm) [1] was “Between two packing units, AMP-PNP, magnesium, and several highly ordered waters best fit”.

In general, stoichiometry N refers to a count of units in the complex or per binding partner. Turning to “PilB from Geobacter metallireducens (enzyme)”, the stoichiometry N in assay [2] and in assay [3] was 6 throughout.

As to `Nc1ncnc2c1ncn2[C@@H]1O[C@H](COP(=O)(O)OP(=O)(O)O)[C@@H](O)[C@H]1O` [ADP], the “X-ray crystallography, 3.4 Å (anisotropic)” value at PilB (PilBGm) [4] is “In four sites, ADP and magnesium best fit the electron density”.
